The species entered for data set [1] is Rattus norvegicus. Conditions: Sprague-Dawley, Brain, 6 mg/kg.
Description: Inhibition of FAAH in Sprague-Dawley rat brain homogenate assessed as increase in PEA levels at 6 mg/kg after 0.5 to 4 hrs by liquid scintillation analysis
Data set [2] has as its system Rattus norvegicus. In words: Inhibition of FAAH in Sprague-Dawley rat brain homogenate assessed as residual activity measured as [3H]-anandamide hydrolysis at 6 mg/kg after 4 hrs by liquid scintillation analysis. The class given is functional.
The species named for data set [3] is Rattus norvegicus. Conditions: Sprague-Dawley, Brain, 6 mg/kg. The source holds these as a separate data set.
Description: Inhibition of FAAH in Sprague-Dawley rat brain homogenate assessed as increase in OEA levels at 6 mg/kg after 0.5 to 4 hrs by liquid scintillation analysis
Data set [4] deals with Rattus norvegicus. The data set is described as follows: Inhibition of FAAH in Sprague-Dawley rat brain homogenate assessed as time duration needed for enzyme activity recovery by measuring [3H]-anandamide hydrolysis at 6 mg/kg by liquid scintillation analysis. It is filed as functional.
Data set [5] is described as follows: Oral bioavailability in Sprague-Dawley rat. It is filed as ADME, organism-based. Conditions: in vivo.
Data set [6] concerns Rattus norvegicus. In words: Inhibition of FAAH in Sprague-Dawley rat brain homogenate assessed as reduction in residual activity measured as [3H]-anandamide hydrolysis at 20 mg/kg after 30 mins by liquid scintillation analysis. Conditions: read-out: INH.
A short description of data set [7]: Clearance in Sprague-Dawley rat. Conditions: in vivo. The class given is ADME, organism-based.
The subject of data set [8] is Rattus norvegicus. In words: Inhibition of FAAH in Sprague-Dawley rat brain homogenate assessed as increase in PEA levels at 20 mg/kg after 0.5 to 4 hrs by […]. The class given is functional, organism-based.
Data set [9] concerns Rattus norvegicus. The data set is described as follows: Inhibition of FAAH in Sprague-Dawley rat brain homogenate assessed as increase in OEA levels at 20 mg/kg after 0.5 to 4 hrs by […]. The class given is functional, organism-based.
In data set [10] the test system is Rattus norvegicus. The data set is described as follows: Inhibition of FAAH in Sprague-Dawley rat brain homogenate assessed as time duration needed for enzyme activity recovery by measuring [3H]-anandamide hydrolysis at 20 mg/kg by liquid scintillation analysis. The class given is functional.
Data set [11] in a line: Volume of distribution at Steady state in Sprague-Dawley rat. It is filed as ADME, organism-based. Conditions: in vivo, read-out: Vdss.
For data set [12], the system named is Rattus norvegicus. The data set is described as follows: Inhibition of FAAH in Sprague-Dawley rat brain homogenate assessed as residual activity measured as [3H]-anandamide hydrolysis at 20 mg/kg after 1 hr by liquid scintillation analysis. It is filed as functional.
Data set [13] is described as follows: Dissociation constant, pKa of the compound at pH 7.2. It is filed as physicochemical.
Data set [14] concerns Rattus norvegicus. In words: Inhibition of FAAH in Sprague-Dawley rat brain homogenate assessed as residual activity measured as [3H]-anandamide hydrolysis at 20 mg/kg after 4 hrs by liquid scintillation analysis. The class given is functional.

From ChEMBL document CHEMBL3808364, “The SAR of brain penetration for a series of heteroaryl urea FAAH inhibitors” (Bioorg Med Chem Lett, 2016) come the findings set out here.

Molecules are shown by their SMILES. Active and inactive are the calls of the source. The rule behind the calls is not given here.

As to `O=C(Nc1nn[nH]n1)N1CCN(Cc2cccc(Oc3ccc(Cl)cc3)c2)CC1`, the inhibition entry in data set [1] and in [3] was “Active” throughout. The Activity in [2] is less than 10%. For the same compound, the Time in [4] was found to be 24 h.

Take `O=C(Nc1cnc2ccccn12)N1CCN(Cc2cccc(Oc3ccc(Cl)cc3)c2)CC1`: the bioavailability in [5] was found to be 60%. In data set [6], the inhibition in vivo at 20 mg/kg is 60%. In data set [7], this compound showed a clearance of 63.3 mL/min/kg. Further, the “FAAH inhibition (PEA level increase), active/inactive” value in data set [8] was “Active”. Moreover, the “OEA level increase (activity call)” value in data set [9] is “Active”. The Time in data set [10] worked out at 24 h. For the same compound, the Vd in data set [11] worked out at 10.7 L/kg. In addition, the Activity in [12] was less than 10%; in data set [14], less than 5%. In data set [13], this compound came in with a pKa of 6.8.

In general, bioavailability refers to the share of a dose that reaches the circulation, judged against a reference dose that is usually intravenous. High values mean good availability, low ones poor availability. A word on the clearance: it is a measure of how efficiently the substance is removed, as volume per time. Broadly, the pKa is the negative logarithm of the acid dissociation constant. Low values mean a stronger acid or weaker base, high ones a weaker acid or stronger base.
